Assay [1] concerns expression of d2EGFP in Tet-ON cells (COLO 320DM) transfected with pSFVdhfr/d2EGFP. The experiment in a line: Level of expression of d2EGFP by cell sorter in HSR and DM clones of Tet-ON cells with 5-aza (Example 7). Conditions: 1 week, Doxycycline 1 μg/ml. In kind it is cell-based, human. As to the method: Fluorescence intensity of these cells were measured by using a cell sorter. The measurement was carried out by sorting 20,000 cells by setting living cells at a gate. The cell sorter used was made by Becton Dickinson, and operated under conditions as described in the manual attached thereto.
In this method for detecting the fluorescence intensity, detection limit was 1, and all fluorescence intensities of 1 or less would be detected as 1. In view of this, a product of a ratio (cell %) of cells of fluorescence intensities of 2 or more in all living cells (10,000 cells) and an average of the fluorescence intensities of the cells having fluorescence intensities of 2 or more was calculated out for each experimental plot. This product is referred to as “accumulated fluorescence intensity” hereinafter and in later Examples and shown in boxed letter in the figures.
By lipofection, the pTet-ON plasmid (Clontech Laboratories Inc.) having Tet-ON gene encoding a transcription activating factor (Tet-ON protein) for promoting TRE-promoter was transfected into human colon cancer COLO 320DM. Transformed cells (hereinafter referred to as “Tet-ON cells”) which stably expressed Tet-ON protein, were selected with Hygromycin.
Next, the pSFVdhfr/d2EGFP plasmid was transfected into the Tet-ON cells by lipofection. The cells thus obtained were selected with 5 μg/ml of Blasticidin for approximately 3 weeks, thereby obtaining a polyclonal population of the stable transformed cells.
The expression of d2EGFP was induced in the polyclonal population by activating TRE-promoter by adding 5 μg/ml of Doxycycline (Clontech Laboratories Inc.) in the medium. FIG. 9 illustrates a result of analysis of the level of the expression of d2EGFP in this case by using a cell sorter. In FIG. 9, the value in parenthesis is an average of fluorescence intensities (i.e., average fluorescence intensity), and boxed value is an accumulated fluorescence intensity. Based on the result of FIG. 9, it was confirmed that the polyclonal population was a population for expressing d2EGFP (average fluorescence intensity: 6.25, accumulated fluorescence intensity: 536).
From the polyclonal population, given 30 clones were obtained by a limiting dilution method that was carried out by inoculating a clone to 6 well plates with such a low cell concentration of 30 cells/ml, and incubating the plates for 10 days to 2 weeks thereby obtaining colonies thereon.
From among the clones, 4 clones having high levels of expression of d2EGFP (Clone 4, Clone 5, Clone 6, and Clone 9) were selected by fluorescence microscopic observation. Mitotic chromosome samples of the 4 clones were prepared. By FISH method, detection for a base sequence derived from the transfected pSFVdhfr/d2EGFP plasmid was carried out. The preparation of mitotic chromosome samples and the FISH method were carried out as described in Shimizu, N., Kanda, T., and Wahl, G. M. Selective capture of acentric fragments by micronuclei provides a rapid method of purifying extrachromosomally amplified DNA. Nature Genet., 12: 65-71, 1996.
For 4 clones, induction with Doxycycline (Clontech Laboratories Inc.; 1 μg/ml) was carried out and 5-aza (0 μM, 1 μM or 3 μM) was added in the medium. After 1 week culturing, the level of expression of d2EGFP in each clone was analyzed by using a cell sorter.

For assay [2], the system named is expression of d2EGFP in human colon cancer COLO 320DM cells. The experiment in a line: Level of expression of d2EGFP by cell sorter in DM clone treated with 5-aza (Example 9). The following applies: DM clone treated with 3 μM of 5-aza for 3 days, then Doxycycline 1 μg/ml for 2 days. In kind it is cell-based. From the text: An equimolar mixture of a plasmid (pSFVdhfr/d2EGFP) and pTet-ON plasmid (Clontech Laboratories Inc.) was simultaneously transfected into human colon cancer COLO 320DM cells. The plasmid (pSFVdhfr/d2EGFP) was a plasmid having (a) IR and MAR derived from human DHFR gene locus, (b) Blasticidin tolerance gene, and (c) d2EGFP gene that was under control of TRE-promoter (Tetracycline inducing promoter). Meanwhile, the pTet-ON plasmid was a plasmid having Tet-ON gene encoding the transcription activating factor (Tet-ON protein) of TRE-promoter. The cells were selected with 5 μg/ml of Blasticidin thereby obtaining a polyclonal population of transformed cells. […] In FIG. 20, the detected base sequence derived from the pSFVdhfr/d2EGFP plasmid is indicated by the arrow. […]
In each culture solution of the two clones, 3 μM of 5-aza was added and thereby the clones were treated with 5-aza for 3 days. […] After the culturing, the level of the expression of d2EGFP in each clone was analyzed by a cell sorter. […] This polyclonal population of transformed cells was subjected to the induction of expression of d2EGFP with Doxycycline and a level of the expression of d2EGFP therein was analyzed by using the cell sorter in the same way as described above. […] FIG. 21(a) illustrates the result of the fluorescence intensity measurements of HSR clone two days after the addition of Doxycycline. […]

Setting [3] is: clone 4 (HSR), 1 μM of 5-aza in the medium.
Setting [4] is: clone 4 (HSR), 3 μM of 5-aza in the medium.
[5] abbreviates: clone 5 (HSR), 1 μM of 5-aza in the medium.
Where [6] appears, read: clone 5 (HSR), 3 μM of 5-aza in the medium.
The mark [7] stands for this setting: clone 6 (HSR), 1 μM of 5-aza in the medium.
Where [8] appears, read: clone 6 (HSR), 3 μM of 5-aza in the medium.
Setting [9] is: clone 9 (DM), 1 μM of 5-aza in the medium.
[10] abbreviates: clone 9 (DM), 3 μM of 5-aza in the medium.

These results are taken from patent US8771983B2, “Method and kit for expressing protein under regulation of the expression from repeated sequence formed by gene amplification, and transformant” (National University of Corporation Hiroshima University, priority 2004, dated 2014).

The structures appear in SMILES notation.

Turning to `Nc1ncn([C@H]2C[C@H](O)[C@@H](CO)O2)c(=O)n1` [5-aza, 5-aza-2′-deoxycytidine], the accumulate fluorescence intensity in assay [1] (setting [3]) was 453; in assay [1] (setting [4]) it was 2300; in assay [1] (setting [5]), 126; in assay [1] (setting [6]), 962; in assay [1] (setting [7]) it was 111; in assay [1] (setting [8]) it was 1000. Further, the results for the accumulate fluorescence intensity in assay [1] (setting [9]) and in assay [1] (setting [10]) were 13200 and 24900, respectively. For the same compound, the average fluorescence intensity is given as 5.46 in assay [1] (setting [3]); 23.76 in assay [1] (setting [4]); 2.23 in assay [1] (setting [5]); 10.44 in assay [1] (setting [6]); 2.09 in assay [1] (setting [7]); 10.87 in assay [1] (setting [8]). In addition, the average fluorescence intensity in assay [1] (setting [9]) came out at 131.86; in assay [1] (setting [10]), 248.60. The compound further showed an accumulated fluorescence intensity in assay [2] of 238113.
